# Several values for one entry are separate records, joined by “and”; a condition that tells them apart may be missing. Equal values may be shown once. Toxic doses and inconclusive results are not listed.
# System: BDF1 mice, P388 leukemia ip, median survival T/C
# Test: NCI In Vivo Anticancer Drug Screen. Data for tumor model P388 Leukemia (intraperitoneal) in B6D2F1 (BDF1) mice
# Settings: endpoint: median survival time, higher = longer survival
# Outline: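 Reported as T/C, where T is the survival measurement in dosed animals and C the same measurement in vehicle controls.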
# [1] = dose: 100.0 mg/kg/injection, schedule: Q04DX003 (ip), vehicle: saline
# [2] = dose: 6.25 mg/kg/injection, schedule: Q01DX009 (ip), vehicle: saline with Tween-80
# [3] = dose: 12.5 mg/kg/injection, schedule: Q01DX009 (ip), vehicle: saline with Tween-80
# [4] = dose: 25.0 mg/kg/injection, schedule: Q04DX003 (ip), vehicle: saline with Tween-80
# [5] = dose: 50.0 mg/kg/injection, schedule: Q04DX003 (ip), vehicle: saline with Tween-80
# [6] = dose: 25.0 mg/kg/injection, schedule: Q01DX009 (ip), vehicle: saline with Tween-80
structure (smiles),measurement,setting,value
CCN(CC)CCOC(=O)c1ccccc1Nc1cccc(C)c1,T/C,"dose: 25.0 mg/kg/injection, schedule: Q01DX009 (ip), vehicle: saline",104 % of control
same,T/C,"dose: 25.0 mg/kg/injection, schedule: Q04DX003 (ip), vehicle: saline",109 % of control
same,T/C,"dose: 50.0 mg/kg/injection, schedule: Q01DX009 (ip), vehicle: saline",108 % of control
same,T/C,"dose: 50.0 mg/kg/injection, schedule: Q04DX003 (ip), vehicle: saline",100 % of control
same,T/C,"dose: 87.0 mg/kg/injection, schedule: Q04DX003 (ip), vehicle: saline",119 % of control
same,T/C,[1],109 % of control
same,T/C,"dose: 175.0 mg/kg/injection, schedule: Q04DX003 (ip), vehicle: saline",107 % of control
COc1cccc(CC2=C3CCCN(C(=O)c4ccccc4)C3CCC2=O)c1 (stereo not drawn),T/C,"dose: 100.0 mg/kg/injection, schedule: Q01DX001 (ip), vehicle: saline sonified",90 % of control
same,T/C,"dose: 200.0 mg/kg/injection, schedule: Q01DX001 (ip), vehicle: saline sonified",90 % of control
same,T/C,"dose: 400.0 mg/kg/injection, schedule: Q01DX001 (ip), vehicle: saline sonified",104 % of control
O=c1c2ccccc2nc(-c2ccccc2)n1-c1nnc(C(F)(F)F)s1,T/C,"dose: 3.12 mg/kg/injection, schedule: Q01DX009 (ip), vehicle: saline with Tween-80",101 % of control
same,T/C,[2],105 % of control
same,T/C,[3],91 % of control
O=[N+]([O-])c1ccc(N/N=C(\CCl)c2ccccc2)c([N+](=O)[O-])c1,T/C,"dose: 25.0 mg/kg/injection, schedule: Q01DX001 (ip), vehicle: saline with Tween-80",109 % of control
same,T/C,"dose: 50.0 mg/kg/injection, schedule: Q01DX001 (ip), vehicle: saline with Tween-80",104 % of control
same,T/C,"dose: 100.0 mg/kg/injection, schedule: Q01DX001 (ip), vehicle: saline with Tween-80",104 % of control
COc1cc2c(cc1OC)[C@H]1Cc3cc(OC)c(OC)cc3[C@@H](C2)N1C(C)=O,T/C,"dose: 50.0 mg/kg/injection, schedule: Q01DX005 (ip), vehicle: saline with Tween-80",91 % of control
same,T/C,"dose: 100.0 mg/kg/injection, schedule: Q01DX005 (ip), vehicle: saline with Tween-80",91 % of control
same,T/C,"dose: 200.0 mg/kg/injection, schedule: Q01DX005 (ip), vehicle: saline with Tween-80",93 % of control
CC1C=CC(C(N)C(=O)O)O1 (stereo not drawn),T/C,[1],100 % of control
same,T/C,"dose: 200.0 mg/kg/injection, schedule: Q04DX003 (ip), vehicle: saline",100 % of control
same,T/C,"dose: 400.0 mg/kg/injection, schedule: Q04DX003 (ip), vehicle: saline",95 % of control and 100 % of control
CC(C)(C)c1cc(CO)c(Sc2c(CO)cc(C(C)(C)C)cc2CO)c(CO)c1,T/C,"dose: 400.0 mg/kg/injection, schedule: Q01DX001 (ip), vehicle: saline with Tween-80",90 % of control
CCCCCCCCC(=O)N(C)OC,T/C,[4],104 % of control
same,T/C,[5],100 % of control
same,T/C,"dose: 100.0 mg/kg/injection, schedule: Q04DX003 (ip), vehicle: saline with Tween-80",100 % of control
COc1cc(O)c2c(c1)Cc1cc(C)cc(O)c1C2=O,T/C,[2],101 % of control
same,T/C,[3],109 % of control
CN(C)C1CCc2ccccc2C1OC(=O)/C=C/c1ccccc1 (stereo not drawn),T/C,[6],100 % of control
same,T/C,"dose: 50.0 mg/kg/injection, schedule: Q01DX009 (ip), vehicle: saline with Tween-80",102 % of control
same,T/C,"dose: 100.0 mg/kg/injection, schedule: Q01DX009 (ip), vehicle: saline with Tween-80",102 % of control
CCN(CC)CCCC(C)Nc1c2ccc(Cl)cc2nc2ccc(OC)cc12 (stereo not drawn),T/C,"dose: 9.37 mg/kg/injection, schedule: Q01DX009 (ip), vehicle: saline",86 % of control
same,T/C,"dose: 18.75 mg/kg/injection, schedule: Q01DX009 (ip), vehicle: saline",90 % of control
same,T/C,"dose: 37.5 mg/kg/injection, schedule: Q01DX009 (ip), vehicle: saline",100 % of control and 109 % of control
same,T/C,"dose: 75.0 mg/kg/injection, schedule: Q01DX009 (ip), vehicle: saline",118 % of control and 120 % of control
same,T/C,"dose: 75.0 mg/kg/injection, schedule: Q04DX003 (ip), vehicle: saline",104 % of control
same,T/C,"dose: 99.0 mg/kg/injection, schedule: Q04DX003 (ip), vehicle: saline",150 % of control
same,T/C,"dose: 150.0 mg/kg/injection, schedule: Q04DX003 (ip), vehicle: saline",172 % of control
COC(=O)/C=C/CCBr,T/C,"dose: 100.0 mg/kg/injection, schedule: Q04DX002 (ip), vehicle: saline with Tween-80",104 % of control
same,T/C,"dose: 200.0 mg/kg/injection, schedule: Q04DX002 (ip), vehicle: saline with Tween-80",109 % of control
same,T/C,"dose: 400.0 mg/kg/injection, schedule: Q04DX002 (ip), vehicle: saline with Tween-80",114 % of control
CCCCC(I)C(C)(C)[n+]1ccccc1 (stereo not drawn),T/C,"dose: 3.12 mg/kg/injection, schedule: Q04DX003 (ip), vehicle: saline with Tween-80",100 % of control
same,T/C,"dose: 6.25 mg/kg/injection, schedule: Q04DX003 (ip), vehicle: saline with Tween-80",95 % of control
same,T/C,[3],100 % of control
same,T/C,"dose: 12.5 mg/kg/injection, schedule: Q04DX003 (ip), vehicle: saline with Tween-80",87 % of control
same,T/C,[6],113 % of control
same,T/C,[4],103 % of control
same,T/C,[5],96 % of control

# Reference: PubChem BioAssay AID328 (DTP/NCI, 2004)
